Where two headings read alike, the source gives them in different places.
Columns and labels:
[1] = biological target: nAChR comprised of α4 and β2 subunits (Rattus norvegicus, UniProt P09483+P12390); test: In vitro inhibition of 3H-cytisine binding
[2] = biological target: nAChR formed by the α7 subunit isoform (Rattus norvegicus, UniProt Q05941); test: biochemical; assay type: binding
[3] = biological target: T1, serotonin transporter (Rattus norvegicus, UniProt P31652); test: In vitro inhibition of 3H-5-hydroxytryptamine (3H-5-HT, serotonin) uptake in cortical synaptosomes; assay type: biochemical
T1 construct: Cerebral cortices from male Wistar rats (150–200 g) are homogenized; from tissue; host or cells: rat cerebral cortex synaptosomes (P2 pellet)
T1 sequence (P31652 whole entry): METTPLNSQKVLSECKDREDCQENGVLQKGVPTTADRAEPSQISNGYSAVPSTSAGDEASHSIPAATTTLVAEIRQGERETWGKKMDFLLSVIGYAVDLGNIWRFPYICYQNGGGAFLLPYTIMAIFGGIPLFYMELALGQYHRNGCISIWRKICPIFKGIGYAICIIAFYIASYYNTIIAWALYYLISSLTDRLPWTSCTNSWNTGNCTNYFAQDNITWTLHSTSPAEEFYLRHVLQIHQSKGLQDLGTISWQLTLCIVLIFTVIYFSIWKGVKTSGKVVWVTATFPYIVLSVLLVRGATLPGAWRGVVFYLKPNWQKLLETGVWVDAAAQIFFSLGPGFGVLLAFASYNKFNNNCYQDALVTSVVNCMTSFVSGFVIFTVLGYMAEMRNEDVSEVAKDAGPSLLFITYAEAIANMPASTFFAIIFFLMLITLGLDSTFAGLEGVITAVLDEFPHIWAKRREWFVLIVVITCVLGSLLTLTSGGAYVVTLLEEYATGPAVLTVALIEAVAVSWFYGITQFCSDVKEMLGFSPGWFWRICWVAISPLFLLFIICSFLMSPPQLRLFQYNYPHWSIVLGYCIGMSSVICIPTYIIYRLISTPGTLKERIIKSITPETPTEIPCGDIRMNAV
Method: In Vitro Inhibition of ^3H-5-hydroxytryptamine (^3H-5-HT, Serotonin) Uptake in Cortical Synaptosomes
Serotonin transporters/uptake sites on nerve terminals presumably function to terminate neuronal signaling by removing serotonin from the synaptic cleft. The activity of the serotonin transporter integral protein can be measured in vitro by synaptosomal uptake of ^3H-5-hydroxytryptamine.
Preparations are performed at 0–4° C. unless otherwise indicated. Cerebral cortices from male Wistar rats (150–200 g) are homogenized for 5–10 sec in 100 volumes of ice-cold 0.32M sucrose containing 1 mM pargyline using a motor driven teflon pestle in a glass homogenizing vessel. Monoamine oxidase activity will be inhibited in the presence of pargyline. The homogenate is centrifuged at 1000×g for 10 min. The resulting supernatant is then centrifuged at 27,000×g for 50 min and the supernatant is discarded.
Aliquots of 4.0 ml tissue suspension are added to 100 µl of test solution and 100 μl of ^3H-5-HT (1 nM, final concentration), mixed and incubated for 30 min at 37° C. Non-specific uptake is determined using citalopram (1 μM, final concentration). After incubation the samples are poured directly onto Whatman GF/C glass fibre filters under suction. The filters are then washed three times with 5 ml of ice-cold 0.9% (w/v) NaCl solution. The amount of radioactivity on the filters is determined by conventional liquid scintillation counting. Specific uptake is calculated as the difference between total uptake and non-specific uptake.
where C0 is specific binding in control assays and Cx is the specific binding in the test assay (the calculations assume normal mass-action kinetics).

[4] = cerebral cortex homogenate from male Wistar rats, 3H-cytisine 1 nM, 90 min at 2° C., read-out: 3H-cytisine binding IC50

Sequence of nAChR formed by the α7 subunit isoform (Q05941 23-502): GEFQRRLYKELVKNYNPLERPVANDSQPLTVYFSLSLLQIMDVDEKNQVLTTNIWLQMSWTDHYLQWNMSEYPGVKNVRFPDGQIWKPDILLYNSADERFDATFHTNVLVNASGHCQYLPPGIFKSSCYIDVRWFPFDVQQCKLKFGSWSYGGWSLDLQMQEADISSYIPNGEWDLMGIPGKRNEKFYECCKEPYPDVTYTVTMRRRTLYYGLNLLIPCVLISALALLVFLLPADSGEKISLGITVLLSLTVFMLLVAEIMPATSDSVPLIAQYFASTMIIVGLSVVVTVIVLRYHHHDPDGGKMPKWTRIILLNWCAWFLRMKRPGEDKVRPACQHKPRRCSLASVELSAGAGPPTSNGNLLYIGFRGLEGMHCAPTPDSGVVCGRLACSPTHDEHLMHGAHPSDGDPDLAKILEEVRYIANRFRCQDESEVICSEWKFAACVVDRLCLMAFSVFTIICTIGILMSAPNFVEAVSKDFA
Sequence of nAChR comprised of α4 and β2 subunits (P09483 31-630): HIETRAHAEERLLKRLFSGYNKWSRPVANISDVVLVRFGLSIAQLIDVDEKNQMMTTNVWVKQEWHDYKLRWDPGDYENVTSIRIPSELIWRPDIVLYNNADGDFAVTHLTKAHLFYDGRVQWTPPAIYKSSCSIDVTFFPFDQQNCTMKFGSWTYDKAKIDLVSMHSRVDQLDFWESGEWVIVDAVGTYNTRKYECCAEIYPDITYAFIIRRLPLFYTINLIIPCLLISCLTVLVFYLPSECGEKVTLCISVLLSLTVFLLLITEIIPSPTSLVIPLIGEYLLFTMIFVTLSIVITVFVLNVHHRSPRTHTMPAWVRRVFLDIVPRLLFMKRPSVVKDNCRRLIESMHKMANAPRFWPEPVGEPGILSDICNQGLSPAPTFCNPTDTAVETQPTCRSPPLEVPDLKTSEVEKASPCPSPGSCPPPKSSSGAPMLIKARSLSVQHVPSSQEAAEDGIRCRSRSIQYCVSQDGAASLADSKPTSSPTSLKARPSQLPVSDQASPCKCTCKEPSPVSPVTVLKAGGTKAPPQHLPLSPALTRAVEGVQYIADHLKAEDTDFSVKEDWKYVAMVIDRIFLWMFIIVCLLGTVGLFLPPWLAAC
Sequence of nAChR comprised of α4 and β2 subunits (P12390 25-500): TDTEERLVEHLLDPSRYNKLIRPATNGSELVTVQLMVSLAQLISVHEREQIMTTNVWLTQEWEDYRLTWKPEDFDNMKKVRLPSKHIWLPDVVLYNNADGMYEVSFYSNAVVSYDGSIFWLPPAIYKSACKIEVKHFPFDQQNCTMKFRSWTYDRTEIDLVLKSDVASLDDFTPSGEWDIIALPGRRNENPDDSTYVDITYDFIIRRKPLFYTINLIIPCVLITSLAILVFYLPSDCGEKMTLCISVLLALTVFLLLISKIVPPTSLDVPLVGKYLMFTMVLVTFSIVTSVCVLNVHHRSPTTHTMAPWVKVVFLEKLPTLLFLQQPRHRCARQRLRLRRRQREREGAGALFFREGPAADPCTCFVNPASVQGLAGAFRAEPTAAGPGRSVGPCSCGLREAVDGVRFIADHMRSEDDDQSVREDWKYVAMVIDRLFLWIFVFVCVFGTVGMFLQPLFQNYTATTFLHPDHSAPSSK

Structure (SMILES) | IC50 [1] [µM] | IC50 [2] [µM] | IC50 [1, 4] [µM] | IC50 [3] [µM]
Cc1ccccc1-c1ccc(N2CCC3CCC(C2)N3C)cn1 (racemic) [Compound F1, (±) 3-[6-(2-Toluyl)-3-pyridyl]-9-methyl-3,9-diazabicyclo-[4.2.1]-nonane] | 0.099 | 5.5 |  | 
CN1CCC2CCC(C1)N2c1ccc(-c2ccccc2)nn1 (racemic) [Compound F10, (±) 3-Methyl-9-(6-phenyl-3-pyridazinyl)-3,9-diazabicyclo-[4.2.1]-nonane] |  | 0.8 | 27 | 
c1ccc2ncc(N3CCC4CCC(C3)N4)cc2c1 (racemic) [Compound B5, (±) 3-(3-Quinolinyl)-9-H-3,9-diazabicyclo-[4.2.1]-nonane] |  |  |  | 0.049
CN1C2CCC1CN(c1ccc3cc([N+](=O)[O-])ccc3n1)CC2 (racemic) [Compound C3, (±) 3-(6-Nitro-2-quinolinyl)-9-methyl-3,9-diazabicyclo-[4.2.1]-nonane] |  |  |  | 0.0037
CN1C2CCC1CN(c1ccc3ccccc3n1)CC2 (racemic) [Compound 2, (±) 3-(2-Quinolinyl)-9-methyl-3,9-diazabicyclo-[4.2.1]-nonane] |  |  |  | 0.013
CN1C2CCC1CN(c1ccc(-c3ccccc3)nn1)CC2 (racemic) [Compound C2, (±) 3-(6-Phenyl-3-pyridazinyl)-9-methyl-3,9-diazabicyclo-[4.2.1]-nonane] |  | 0.41 | > 10 | 
CN1C2CCC1CN(c1ccc(-c3ccsc3)nc1)CC2 (racemic) [Compound F5, (±) 3-[6-(3-Thienyl)-3-pyridyl]-9-methyl-3,9-diazabicyclo-[4.2.1]-nonane] |  | 0.28 | 1.5 | 
CN1C2CCC1CN(c1ccc(Cl)c(Cl)c1)CC2 (racemic) [Compound A1, (±) 3-(3,4-Dichlorophenyl)-9-methyl-3,9-diazabicyclo-[4.2.1]-nonane] |  |  |  | 0.032
CN1C2CCC1CN(c1ccc3ccccc3c1)CC2 (racemic) [Compound 1, (±) 3-(2-Naphthalyl)-9-methyl-3,9-diazabicyclo-[4.2.1]-nonane] |  |  |  | 0.04
CN1C2CCC1CN(c1cncc(OCCOc3cncc(N4CCC5CCC(C4)N5C)c3)c1)CC2 (racemic) [Compound B7, (±) O,O′-bis-[5-(9-Methyl-3,9-diazabicyclo-[4.2.1]-nonan-3-yl)-3-pyridyl]-ethyleneglycol] | 0.013 | > 10 |  | 
